# Source: publication PMC5611513, “Structure-Based Prototype Peptides Targeting the Pseudomonas aeruginosa Type VI Secretion System Effector as a Novel Antibacterial Strategy” (Frontiers in Cellular and Infection Microbiology, 2017)
# Numbering of substitutions follows the chain as printed.
# How the values were obtained:
# [1] = test system: E. coli BL21 (DE3); assay: Cell-toxicity assay, spot growth on LB agar; format: cell-based, Escherichia coli; details: 0.045 mM IPTG, 24 h; for decrease of growth inhibition on expression of mutated “L” peptide: E. coli BL21 (DE3) expressing TplE-TplEi and mutated peptide, compared with “L” peptide
# Description: Cell-toxicity assay was carried as previously described with minor modification (Jiang et al., [2016]). […] A 2 μl bacterial dilution was spotted onto LB agar plate containing 0.045 mM IPTG. Images were taken after 24 h growth.
# (A) Diagrams of TplE, TplE-TplEi and “L” peptide expressing constructs. Expression of vector sequence and “L” peptide mutant with the PelB signal peptide was used as a control. […] A 10-fold serial dilution of overnight culture was spotted on LB agar plates from left to right. The experiments were performed at least 3 times.
# [2] = molecular target: T1, TplEi (Pseudomonas aeruginosa, UniProt Q9I3K3); assay: Isothermal titration calorimetry (ITC) of TplE peptides with wild type TplEi; format: binding; details: for Kd: 25°C, 20 mM Tris-HCl pH 8.0, 100 mM NaCl, A peptides (WT) and its mutants, Figure 3D,E; for effect of the mutation on “L” peptide binding to TplEi: result in words, compared to WT peptide
# T1 sequence (Q9I3K3 1-380): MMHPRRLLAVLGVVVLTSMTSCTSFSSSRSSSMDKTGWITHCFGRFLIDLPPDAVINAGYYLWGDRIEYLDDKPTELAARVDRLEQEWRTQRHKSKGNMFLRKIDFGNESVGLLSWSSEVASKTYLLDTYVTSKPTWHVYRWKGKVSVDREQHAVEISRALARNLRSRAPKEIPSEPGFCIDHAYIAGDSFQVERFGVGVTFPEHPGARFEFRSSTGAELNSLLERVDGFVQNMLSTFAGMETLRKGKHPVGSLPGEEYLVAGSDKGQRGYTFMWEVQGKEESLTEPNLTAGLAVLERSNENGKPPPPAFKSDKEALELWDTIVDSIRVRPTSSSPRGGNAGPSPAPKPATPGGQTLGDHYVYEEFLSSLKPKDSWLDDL
# Description: (§1) Isothermal titration calorimetry (ITC) assay was performed with a MicroCalTM iTC200 calorimeter (MicroCal, USA) at 25°C; both the protein and peptides were dissolved with the same buffer (20 mM Tris-HCl, pH = 8.0, 100 mM NaCl). The concentration of TplEi was between 0.03 and 0.04 mM. The concentrations of wild type peptides and mutants were between 1 and 2 mM. Titration was scheduled with 18 consecutive injections of 2 μl of peptide with a 120 s interval between injections, using a stirring rate of 600 rpm. Data acquisition and analysis were performed using MicroCal Origin software (version 7.0).
# [3] = molecular target: T2, TplEi R266A mutant (Pseudomonas aeruginosa, UniProt Q9I3K3); assay: ITC of the “L” peptide with TplEi mutant R266A; format: binding; details: 25°C, TplEi R266A, Figure S3
# T2 sequence (Q9I3K3 1-380 R226A): T1 sequence (Q9I3K3 1-380) with R226A
# Description: as §1
# (§2) To further elucidate the mechanism underlying the “L” peptide binding, we mutated several key residues of TplEi interacting with the “L” peptide, and measured the binding affinity of the “L” peptide to these TplEi mutants using ITC. The side chain of K100 of the “L” peptide forms four hydrogen bonds with TplEi, among which only one involves side chain interaction with S215 of TplEi, whereas the other three involve backbone atoms. […] Similarly, we prepared TplEi mutants E219A and R266A, respectively. E219 forms a hydrogen bond with backbone NH group of K100 of the “L” peptide, and R266 forms two hydrogen bonds with the carbonyl group of W96 of the peptide (Figure 3A).
# [4] = molecular target: T3, TplEi R266A mutant (Pseudomonas aeruginosa, UniProt Q9I3K3, R226A, form not given); assay: ITC of the “L” peptide with TplEi mutant R266A; format: binding; details: TplEi R266A vs wild type TplEi
# T3 sequence (Q9I3K3 1-380 R226A): T1 sequence (Q9I3K3 1-380) with R226A
# Description: as §1, §2
# [5] = molecular target: T4, TplEi S215A mutant (Pseudomonas aeruginosa, UniProt Q9I3K3, S215A); assay: ITC of the “L” peptide with TplEi mutant S215A; format: binding
# T4 sequence (Q9I3K3 1-380 S215A): T1 sequence (Q9I3K3 1-380) with S215A
# Description: as §1, §2
# [6] = molecular target: T5, TplEi E219A mutant (Pseudomonas aeruginosa, UniProt Q9I3K3, E219A); assay: ITC of the “L” peptide with TplEi mutant E219A; format: binding
# T5 sequence (Q9I3K3 1-380 E219A): T1 sequence (Q9I3K3 1-380) with E219A
# Description: as §1, §2
Substance,Kd [2] [µM],effect of the mutation on “L” peptide binding to TplEi [2],other results
Ac-DDLFASIGALATWAWRGPKARQELLKAEQVEVDD-NH2 [W92A],50,–,decrease of growth inhibition on expression of mutated “L” peptide [1]: moderate decreased growth inhibition
Ac-DDLFASIGALWTWAWRGAKARQELLKAEQVEVDD-NH2 [P99A],0.057,increased binding affinity,–
DDLFASIGALWTWAWRGPEARQELLKAEQVEVDD [K100E],–,completely abolished,decrease of growth inhibition on expression of mutated “L” peptide [1]: strong
Ac-DDLFASIGAAWTWAWRGPKARQELLKAEQVEVDD-NH2 [L91A],3.7,–,–
Ac-DDLFASIGALWTWAWRAPKARQELLKAEQVEVDD-NH2 [G98A],1.31,–,–
Ac-DDLFASIGALWTWAWRGPKARQELLKAEQVEVDD-NH2 [“L” peptide],–,–,"growth inhibition on expression of the peptide ([1]; E. coli BL21 (DE3) expressing periplasmic-targeted TplE-TplEi and peptide, 10-fold serial dilutions, at least 3 experiments): significant TplE-dependent growth inhibition; Kd [3]: 46.9 µM; decreased binding affinity [4]: 375 folds; Kd ([5]; 25°C, TplEi S215A, Figure S3): 7.8 µM; reduced binding affinity comparing to wild type TplEi ([5]; TplEi S215A vs wild type TplEi): ~62 folds; Kd ([6]; 25°C, TplEi E219A, Figure S3): 35.5 µM; decreased binding affinity ([6]; TplEi E219A vs wild type TplEi): 284 folds"
Ac-DDLFASAGALWTWAWRGPKARQELLKAEQVEVDD-NH2 [I88A],4.8,–,–
Ac-DDLFASIGALWTWAARGPKARQELLKAEQVEVDD-NH2 [W96A],0.031,increased binding affinity,–
